Data: patent US10882844B2, “Compounds useful as immunomodulators” (Bristol-Myers Squibb Company, priority 2016, dated 2021)

Molecular target: PD-1/PD-L1 (Homo sapiens (Human), UniProt Q9NZQ7)
Assay: PD-1/PD-L1 Homogenous Time-Resolved Fluorescence (HTRF) binding assay
Conditions: PD-1-Ig / PD-L1-His HTRF; value given as range class; read-out: Range or IC50
Description: The ability of the compounds of formula (I) to bind to PD-L1 was investigated using a PD-1/PD-L1 Homogenous Time-Resolved Fluorescence (HTRF) binding assay.
Homogenous Time-Resolved Fluorescence (HTRF) binding assay.
The interaction of PD-1 and PD-L1 can be assessed using soluble, purified preparations of the extracellular domains of the two proteins. The PD-1 and PD-L1 protein extracellular domains were expressed as fusion proteins with detection tags, for PD-1, the tag was the Fc portion of Immunoglobulin (PD-1-Ig) and for PD-L1 it was the 6 histidine motif (PD-L1-His). All binding studies were performed in an HTRF assay buffer consisting of dPBS supplemented with 0.1% […] bovine serum albumin and 0.05% (v/v) Tween-20. For the h/PD-L1-His binding assay, inhibitors were pre-incubated with PD-L1-His (10 nM final) for 15 m in 4 μl of assay buffer, followed by addition of PD-1-Ig (20 nM final) in 1 μl of assay buffer and further incubation for 15 m. HTRF detection was achieved using europium crypate-labeled anti-Ig (1 nM final) and allophycocyanin (APC) labeled anti-His (20 nM final). Antibodies were diluted in HTRF detection buffer and 5 μl was dispensed on top of the binding reaction. The reaction mixture was allowed to equilibrate for 30 minutes and the resulting signal (665 nm/620 nm ratio) was obtained using an EnVision fluorometer. Additional binding assays were established between the human proteins PD-1-Ig/PD-L2-His (20 & 5 nM, respectively) and CD8O-His/PD-L1-Ig (100 & 10 nM, respectively).
Recombinant Proteins: Human PD-1 (25-167) with a C-terminal human Fc domain of immunoglobulin G (Ig) epitope tag [hPD-1 (25-167)-3S-IG] and human PD-L1 (18-239) with a C-terminal His epitope tag [hPD-L1(18-239)-TVMV-His] were expressed in HEK293T cells and purified sequentially by ProteinA affinity chromatography and size exclusion chromatography. Human PD-L2-His and CD80-His was obtained through commercial sources.
The table below lists the IC50 values for representative examples of this disclosure measured in the PD-1/PD-L1 Homogenous Time-Resolved Fluorescence (HTRF) binding assay. Ranges are as follows: A=0.18 nM-0.99 nM; B=1.0 nM-5.0 nM; C=5.01 nM-10.1 nM; D=10.2 nM-200 nM; E=201 nM→10 uM

Chain of PD-1/PD-L1 (Q9NZQ7 other isoform, or with tags, fused parts or gaps): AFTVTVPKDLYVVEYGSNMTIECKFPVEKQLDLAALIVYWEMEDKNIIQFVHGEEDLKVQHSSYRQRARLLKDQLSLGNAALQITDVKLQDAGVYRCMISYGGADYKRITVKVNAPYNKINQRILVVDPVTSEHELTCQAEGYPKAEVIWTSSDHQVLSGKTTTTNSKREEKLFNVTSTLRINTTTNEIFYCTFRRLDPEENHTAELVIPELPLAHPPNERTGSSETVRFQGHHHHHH

Row | IC50 | Structure (SMILES)
1 | 1 to 5 nM | Cc1c(COc2cc(OCc3cncc(C#N)c3)c(CN[C@@](C)(CO)C(=O)O)cc2Cl)cccc1-c1ccc2oc(N3CCN(C)CC3)nc2c1 [Example 2011, (S)-2-((5-chloro-2-((5-cyanopyridin-3-yl)methoxy)-4-((2-methyl-3-(2-(4-methylpiperazin-1-yl)benzo[d]oxazol-5-yl)benzyl)oxy)benzyl)amino)-3-hydroxy-2-methylpropanoic Acid]
2 | 1 to 5 nM | Cc1c(COc2cc(OCc3cncc(C#N)c3)c(CN3CCCC[C@H]3C(=O)O)cc2Cl)cccc1-c1ccc2oc(C3CCN(C4CC4)CC3)nc2c1 [Example 1005, (S)-1-(5-chloro-2-((5-cyanopyridin-3-yl)methoxy)-4-((3-(2-(1-cyclopropylpiperidin-4-yl)benzo[d]oxazol-5-yl)-2-methylbenzyl)oxy)benzyl)piperidine-2-carboxylic Acid]
